Measured values reported in US20240158370A1, “CK1 alpha AND DUAL CK1 alpha / GSPT1 DEGRADING COMPOUNDS” (Innovo Therapeutics, Inc., priority 2022, published 2024).

Experiments:
Assay type in all cases: cell-based
[1] = molecular target: T1, CK1α (Homo sapiens, UniProt P48729+Q96SW2); assay: HiBiT degradation assay, CK1α, Procedure A
T1 construct: CSNK1A1-HiBit KI HEK293(LgBit) Cells; host or cells: HEK293(LgBit) knock-in cells
Summary of the method: (§1)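 Cells in DMEM + 10% FBS were treated with compound in a ten-point dose response from 10 μM to 0.005 μM (0.1% DMSO) for six hours at 37° C. Lysis with Nano-Glo HiBiT detection reagent followed, with luminescence read. DC50 and Ymin came from a 4-parameter fit.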

[2] = tested on: Z-138 cells; assay: Z-138 Proliferation Assay (Cell Titer-Glo); details: 72 hours; for Ymin (%): % remaining (percent of DMSO control); for EC50: Homo sapiens, Cell Titer-Glo, 4-parameter curve fit
Protocol: Z-138 Proliferation Assay
Z-138 cells were cultured in IMDM Medium supplemented with 10% heat in-activated fetal bovine serum and 1% Penicillin-Streptomycin.
10 mM stocks of compound were made from fresh powder. DMSO was added to solid compound so that the final concentration was 10 mM. Compounds were vortexed and allowed to sit for 5 minutes to ensure complete solubility. Solvated compound was aliquoted into 1 ml Eppendorf tubes and stored in a −20° C. freezer.
Z-138 cells were maintained in culture using standard cell culturing techniques.
Cells were maintained at a density of 0.8×10^6 cells/ml.
Re-constitute cell titer-glo reagent according to manufacturer's protocol.
Z-138 cells were removed from culture and cell viability and density were determined using a CellDrop™ Automated Cell Counter with Tryphan blue stain according to manufacturer's protocols. Cells were centrifuged and resuspended using fresh media to a cell density of 0.1×10^6 cells/ml. […] 40 μl of cell suspension was added to the wells of a 384 well tissue culture plate (4,000 cells/well final). Upon completing the addition of the cells to the plate, the plates were centrifuged for 30 seconds at 300 rpms to help the cells settle and to bring air bubbles to the top of the wells. Air bubbles were popped using a pipette tip.
10-point dose response curves were performed using a D300e Digital Dispenser. The highest concentration of compound used in the assay was 10,000 nM. 1:2 dilutions were performed over a 10-point range with the final DMSO concentration being 0.1%. The cells were cultured for 72 hours in the presence of compound.
After 72 hours, the cell plates were removed from the incubator and allowed to equilibrate to room temperature (about 15 minutes). 20 μl of cell titer-glo reagent was added to each well of the 384 well plate. Incubated the plate for 30 minutes in the dark. After 30 minutes, ensured that there were no air bubbles in the plate (popped bubbles with pipette tip if necessary) and analyzed plate using a luminometer.
EC50 curves were generated using Prism Graph Pad. In brief, POCs (percent of control, compound/DMSO control×100) were plotted against the compound concentrations (log scale). EC50 curves were generated using a 4-parameter curve fit.

[3] = molecular target: GSPT1 (Homo sapiens, UniProt P15170+Q96SW2); assay: HiBiT degradation assay, GSPT1, Procedure A; parameters: HiBit-GSPT1 KI HEK293(LgBit) Cells; host or cells: HEK293(LgBit) knock-in cells
Summary of the method: as §1

GSPT1, sequence (P15170 whole entry): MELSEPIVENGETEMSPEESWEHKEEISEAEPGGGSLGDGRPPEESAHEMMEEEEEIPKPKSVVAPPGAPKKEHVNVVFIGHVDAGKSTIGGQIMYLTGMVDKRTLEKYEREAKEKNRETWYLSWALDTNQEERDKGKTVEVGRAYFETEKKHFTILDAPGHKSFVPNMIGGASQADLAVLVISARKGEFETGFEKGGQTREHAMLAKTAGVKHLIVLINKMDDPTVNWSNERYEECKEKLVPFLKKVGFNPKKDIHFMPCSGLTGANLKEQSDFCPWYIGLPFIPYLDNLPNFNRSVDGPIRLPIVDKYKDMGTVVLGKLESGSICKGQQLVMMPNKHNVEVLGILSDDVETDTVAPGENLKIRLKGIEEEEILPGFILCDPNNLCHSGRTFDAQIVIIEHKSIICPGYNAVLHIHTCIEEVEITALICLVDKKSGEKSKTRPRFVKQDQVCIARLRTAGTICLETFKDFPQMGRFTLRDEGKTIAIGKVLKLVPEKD
GSPT1, sequence (Q96SW2 whole entry): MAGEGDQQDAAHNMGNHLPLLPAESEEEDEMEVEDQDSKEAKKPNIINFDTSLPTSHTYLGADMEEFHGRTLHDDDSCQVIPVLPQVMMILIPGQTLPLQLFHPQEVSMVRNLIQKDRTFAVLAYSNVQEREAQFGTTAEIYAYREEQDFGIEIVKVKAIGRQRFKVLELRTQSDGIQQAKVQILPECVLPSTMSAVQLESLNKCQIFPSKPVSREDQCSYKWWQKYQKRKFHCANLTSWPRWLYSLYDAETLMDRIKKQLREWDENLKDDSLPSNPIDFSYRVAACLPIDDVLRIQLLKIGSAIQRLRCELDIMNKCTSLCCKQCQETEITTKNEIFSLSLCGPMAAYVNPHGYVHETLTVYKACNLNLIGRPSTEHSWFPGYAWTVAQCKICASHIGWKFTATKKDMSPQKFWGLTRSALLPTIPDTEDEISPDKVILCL
GSPT1, sequence (Q16531 whole entry partner): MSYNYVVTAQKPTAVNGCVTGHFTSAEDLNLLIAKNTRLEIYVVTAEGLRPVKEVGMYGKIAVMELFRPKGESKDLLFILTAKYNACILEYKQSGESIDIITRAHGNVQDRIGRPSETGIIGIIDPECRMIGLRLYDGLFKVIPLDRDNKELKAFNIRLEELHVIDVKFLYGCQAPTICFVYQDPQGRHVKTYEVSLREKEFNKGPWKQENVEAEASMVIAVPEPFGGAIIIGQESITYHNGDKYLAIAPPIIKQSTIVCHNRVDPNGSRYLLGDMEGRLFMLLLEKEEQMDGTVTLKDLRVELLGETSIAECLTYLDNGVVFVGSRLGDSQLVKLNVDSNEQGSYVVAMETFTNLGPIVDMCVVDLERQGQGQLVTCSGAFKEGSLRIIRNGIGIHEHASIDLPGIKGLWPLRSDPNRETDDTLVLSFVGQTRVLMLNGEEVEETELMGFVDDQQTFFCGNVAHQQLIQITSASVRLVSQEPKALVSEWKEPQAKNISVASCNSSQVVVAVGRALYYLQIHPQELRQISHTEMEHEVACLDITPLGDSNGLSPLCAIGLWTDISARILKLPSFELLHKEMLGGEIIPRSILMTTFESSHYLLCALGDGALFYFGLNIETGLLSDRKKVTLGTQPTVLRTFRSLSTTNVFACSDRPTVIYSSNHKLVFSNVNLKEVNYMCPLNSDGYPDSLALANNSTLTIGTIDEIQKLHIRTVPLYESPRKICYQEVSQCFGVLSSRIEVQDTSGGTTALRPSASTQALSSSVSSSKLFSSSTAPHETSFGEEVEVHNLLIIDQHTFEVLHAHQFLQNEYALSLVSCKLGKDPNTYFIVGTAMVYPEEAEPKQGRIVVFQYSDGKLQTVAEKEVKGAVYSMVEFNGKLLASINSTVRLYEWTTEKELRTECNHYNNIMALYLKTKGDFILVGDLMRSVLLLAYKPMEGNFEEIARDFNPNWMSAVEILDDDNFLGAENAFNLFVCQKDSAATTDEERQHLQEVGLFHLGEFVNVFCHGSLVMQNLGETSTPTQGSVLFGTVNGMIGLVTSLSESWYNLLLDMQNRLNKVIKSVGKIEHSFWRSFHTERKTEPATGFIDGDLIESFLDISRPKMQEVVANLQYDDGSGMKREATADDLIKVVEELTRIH
T1 sequence (P48729 whole entry): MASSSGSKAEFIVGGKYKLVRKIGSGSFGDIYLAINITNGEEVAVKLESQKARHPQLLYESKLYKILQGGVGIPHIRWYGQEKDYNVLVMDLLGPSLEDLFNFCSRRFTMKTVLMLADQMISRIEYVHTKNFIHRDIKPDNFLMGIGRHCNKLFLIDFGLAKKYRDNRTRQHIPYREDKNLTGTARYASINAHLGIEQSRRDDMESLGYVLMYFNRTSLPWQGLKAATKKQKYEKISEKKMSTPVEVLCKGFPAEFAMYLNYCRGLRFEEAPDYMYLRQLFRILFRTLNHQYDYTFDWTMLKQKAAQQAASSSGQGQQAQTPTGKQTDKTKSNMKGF
T1 sequence (Q96SW2 whole entry): as the sequence (Q96SW2 whole entry) above
T1 sequence (Q16531 whole entry partner): as the sequence (Q16531 whole entry partner) above

Structure (SMILES) | CK1α Ymin ([1]; six hours incubation) | DC50 ([1]; six hours incubation) | DC50 ([3]; six hours incubation) | GSPT1 Ymin ([3]; six hours incubation) | CK1α Ymin ([1]; six hours) | DC50 ([1]; six hours) | DC50 ([3]; six hours) | GSPT1 Ymin ([3]; six hours) | Ymin (%) [2] | EC50 [2]
Cn1cc(-c2ccccc2)nc1-c1ccc2c(c1)CN(C1CCC(=O)NC1=O)C2=O (stereo not drawn) [Example 41, 3-(5-(1-Methyl-4-phenyl-1H-imidazol-2-yl)-1-oxoisoindolin-2-yl)piperidine-2,6-dione] | D (D = >10- 25% remaining) | < 25 nM | ≥ 25 nM | F (F = >75-100% remaining) | – | – | – | – | D (0-10% remaining) | 10 to 100 nM
Cn1nc(-c2ccc3c(c2)CN(C2CCC(=O)NC2=O)C3=O)nc1C1CCCCC1 (stereo not drawn) [Example 614, 3-(5-(5-cyclohexyl-1-methyl-1H-1,2,4-triazol-3-yl)-1-oxoisoindolin-2-yl)piperidine-2,6-dione] | – | – | – | – | D (D = >10- 25% remaining) | ≥ 25 nM | ≥ 25 nM | F (F = >75-100% remaining) | F (>25-50% remaining) | 10 to 100 nM
Cn1cc(-c2c(-c3ccc4c(c3)CN(C3CCC(=O)NC3=O)C4=O)ncn2C)cn1 (stereo not drawn) [Example 319] | C (C = 0-10% remaining) | < 25 nM | ≥ 25 nM | E (E = >25-75% remaining) | – | – | – | – | D (0-10% remaining) | 10 to 100 nM
Cn1nc(-c2ccc3c(c2)CN(C2CCC(=O)NC2=O)C3=O)nc1C1CCC(F)(F)CC1 (stereo not drawn) [Example 606, 3-(5-(5-(4,4-difluorocyclohexyl)-1-methyl-1H-1,2,4-triazol-3-yl)-1-oxoisoindolin-2-yl)piperidine-2,6-dione] | – | – | – | – | E (E = >25-75% remaining) | ≥ 25 nM | ≥ 25 nM | F (F = >75-100% remaining) | F (>25-50% remaining) | 10 to 100 nM
Cn1cnc(-c2ccc3c(c2)CN(C2CCC(=O)NC2=O)C3=O)c1-c1ccc(F)c(C#N)c1 (stereo not drawn) [Example 184] | D (D = >10- 25% remaining) | < 25 nM | ≥ 25 nM | C (C = 0-10% remaining) | – | – | – | – | D (0-10% remaining) | 10 to 100 nM
COc1ccc(-c2c(-c3ccc4c(c3)CN(C3CCC(=O)NC3=O)C4=O)cnn2C(F)F)c(Cl)c1 (stereo not drawn) [Example 518, 3-(5-(5-(2-chloro-4-methoxyphenyl)-1-(difluoromethyl)-1H-pyrazol-4-yl)-1-oxoisoindolin-2-yl)piperidine-2,6-dione] | – | – | – | – | C (C = 0-10% remaining) | < 25 nM | < 25 nM | F (F = >75-100% remaining) | D (0-10% remaining) | 10 to 100 nM
Cn1c(-c2ccccc2)cnc1-c1ccc2c(c1)CN(C1CCC(=O)NC1=O)C2=O (stereo not drawn) [Example 40, 3-(5-(1-Methyl-5-phenyl-1H-imidazol-2-yl)-1-oxoisoindolin-2-yl)piperidine-2,6-dione] | D (D = >10- 25% remaining) | < 25 nM | < 25 nM | D (D = >10- 25% remaining) | – | – | – | – | D (0-10% remaining) | < 10 nM
CC(C)n1nc(-c2ccc3c(c2)CN(C2CCC(=O)NC2=O)C3=O)cc1-c1ccccc1 (stereo not drawn) [Example 550, 3-(5-(1-isopropyl-5-phenyl-1H-pyrazol-3-yl)-1-oxoisoindolin-2-yl)piperidine-2,6-dione] | – | – | – | – | C (C = 0-10% remaining) | < 25 nM | ≥ 25 nM | F (F = >75-100% remaining) | D (0-10% remaining) | 10 to 100 nM
O=C1CCC(N2Cc3cc(-c4coc(-c5ccccc5)n4)ccc3C2=O)C(=O)N1 (stereo not drawn) [Example 37, 3-(1-Oxo-5-(2-phenyloxazol-4-yl)isoindolin-2-yl)piperidine-2,6-dione] | D (D = >10- 25% remaining) | < 25 nM | ≥ 25 nM | F (F = >75-100% remaining) | – | – | – | – | F (>25-50% remaining) | 10 to 100 nM
Cn1cc(-c2c(-c3ccc4c(c3)CN(C3CCC(=O)NC3=O)C4=O)nc(C3CC3)n2C)cn1 (stereo not drawn) [Example 46, 3-(5-(2-Cyclopropyl-1-methyl-5-(1-methyl-1H-pyrazol-4-yl)-1H-imidazol-4-yl)-1-oxoisoindolin-2-yl)piperidine-2,6-dione] | C (C = 0-10% remaining) | < 25 nM | ≥ 25 nM | F (F = >75-100% remaining) | – | – | – | – | D (0-10% remaining) | < 10 nM

Further lines, with some results ahead:

CK1α Ymin ([1]; six hours incubation) | DC50 ([1]; six hours incubation) | DC50 ([3]; six hours incubation) | GSPT1 Ymin ([3]; six hours incubation) | CK1α Ymin ([1]; six hours) | DC50 ([1]; six hours) | DC50 ([3]; six hours) | GSPT1 Ymin ([3]; six hours) | Structure (SMILES) | Ymin (%) [2] | EC50 [2]
– | – | – | – | E (E = >25-75% remaining) | < 25 nM | ≥ 25 nM | F (F = >75-100% remaining) | Cn1nc(-c2ccc3c(c2)CN(C2CCC(=O)NC2=O)C3=O)nc1-c1ccc(C(F)(F)F)cc1 (stereo not drawn) [Example 619, 3-(5-(1-methyl-5-(4-(trifluoromethyl)phenyl)-1H-1,2,4-triazol-3-yl)-1-oxoisoindolin-2-yl)piperidine-2,6-dione] | F (>25-50% remaining) | 10 to 100 nM
D (D = >10- 25% remaining) | < 25 nM | ≥ 25 nM | F (F = >75-100% remaining) | – | – | – | – | O=C1CCC(N2Cc3cc(-c4cc(-c5ccccc5)no4)ccc3C2=O)C(=O)N1 (stereo not drawn) [Example 43, 3-(1-Oxo-5-(3-phenylisoxazol-5-yl)isoindolin-2-yl)piperidine-2,6-dione] | F (>25-50% remaining) | 100 to 500 nM
D (D = >10- 25% remaining) | < 25 nM | ≥ 25 nM | F (F = >75-100% remaining) | – | – | – | – | Cc1ccc(-c2c(-c3ccc4c(c3)CN(C3CCC(=O)NC3=O)C4=O)cnn2C)cc1 (stereo not drawn) [Example 72] | E (>10-25% remaining) | 10 to 100 nM
C (C = 0-10% remaining) | < 25 nM | ≥ 25 nM | E (E = >25-75% remaining) | – | – | – | – | Cc1c(-c2ccccc2)c(-c2ccc3c(c2)CN(C2CCC(=O)NC2=O)C3=O)nn1C (stereo not drawn) [Example 17, 3-(5-(1,5-Dimethyl-4-phenyl-1H-pyrazol-3-yl)-1-oxoisoindolin-2-yl)piperidine-2,6-dione] | D (0-10% remaining) | < 10 nM
D (D = >10- 25% remaining) | < 25 nM | < 25 nM | E (E = >25-75% remaining) | – | – | – | – | O=C1CCC(N2Cc3cc(-c4cn(-c5ccccc5)cn4)ccc3C2=O)C(=O)N1 (stereo not drawn) [Example 32, 3-(1-Oxo-5-(1-phenyl-1H-imidazol-4-yl)isoindolin-2-yl)piperidine-2,6-dione] | D (0-10% remaining) | < 10 nM
